Measurements from US12195437B2, “Lipophenolic flavonoid derivatives useful to reduce carbonyl and oxidative stresses (COS)” (Centre National de la Recherche Scientifique (CNRS), priority 2018, dated 2025).
Entries after “also recorded” stand apart in the source; their conditions may differ.

Key:
Assay type in all cases: cell-based
[1] = Cytotoxicity of lipophenols on ARPE-19 cells (MTT); details: human, ARPE-19 cells (retinal pigment epithelium), tested 0-160 μM, read-out: CC50 (cytotoxic concentration 50)
Experimental: (§1) Cell viability was determined by MTT colorimetric assay. Cells were incubated for 2 h with MTT reagent (0.5 mg/mL). During this incubation time, dehydrogenases of living cells reduced MTT to insoluble purple formazan, which was then dissolved in DMSO. The absorbance at 570 nm and 655 nm of individual wells was measured using a microplate reader (BioRad 550). The percentage of viable cells was calculated as [(OD570 sample−OD655 sample)/(OD570 control−OD655 control)]×100%.
ARPE-19 cells were plated into 96-well plates (4×10^4 cells/well) and cultured for 24 h to reach confluence before lipophenol treatment. […] Control cells were incubated with DMSO (0.2%). The viability of the cells was determined using a MTT colorimetric assay. All samples are expressed as percentage of viability compared to non-treated control cells (normalized at 100% survival).
Results on the measurement of lipophenol toxicity will be discussed in % cell survival at a given lipophenol concentration compared to untreated cells. […] Any concentration of lipophenol resulting in cell survival of less than 5% (zero survival) will be considered a highly toxic concentration.

[2] = test system: ARPE-19 cells; experiment: Protection of lipophenols against photoactivated A2E toxicity (MTT); details: from 40 μM lipophenol (plateau), A2E 20 μM, blue light
Experimental: (§2) ARPE-19 cells (cells from the retinal pigment epithelium) were obtained from ATCC, and were grown following the instructions in Dulbecco's Modified Eagle's Medium (DMEM)/Ham F12 (GIBCO) containing 10% v/v fetal bovine serum (FBS) and 1% v/v penicillin/streptomycin under a humidified air (95%)/CO2 (5%) atmosphere at 37° C. For experimental cell seeding and sub-culturing, cells were dissociated with 0.25% trypsin-EDTA, re-suspended in the culture medium and then plated at 1-3×10^5 cells/mL.
as §1
ARPE-19 cells were plated into 96-well plates (4×10^4 cells/well) and cultured for 24 h to reach confluence before lipophenol treatment. The cell cultures were treated with serum free DMEM/F12 medium without phenol red containing lipophenols at different concentrations (0-80 μM) for 1 h. Then A2E was added to a final concentration of 20 μM for 6 h, before rinsing with medium. Control cells were incubated with DMSO (0.2%)+A2E. Cells were exposed to intense blue light (4600 LUX) for 30 min to induce phototoxicity of A2E and incubated at 37° C. The cell viability was determined 16-20 h later using a MTT colorimetric assay. All samples are expressed as percentage of viability compared to non-treated and exposed to A2E control cells. Non-treated and non-exposed to A2E control cells are normalized at 100% survival.
Photoactivation of A2E leads to its oxidation and can generate cytotoxic derivatives, in particular carbonyl derivatives responsible for carbonyl stress. Results on lipophenol protection against photoactivated A2E toxicity will be discussed in % cell survival gain compared to cells stressed by A2E and not treated by lipophenols. This additional evaluation was not performed for all synthesized lipophenolic derivatives but only a selection of them to discuss the results obtained.

[3] = test system: ARPE-19 cells; experiment: Protection of lipophenols against all-trans-retinal toxicity (anti-carbonyl stress activity, MTT); details: trans-retinal 15 μM
Experimental: as §2, §1
ARPE-19 cells were plated into 96-well plates (4×10^4 cells/well) and cultured for 24 h to reach confluence before lipophenol treatment. The cell cultures were treated with serum free medium containing lipophenols at different concentrations (0-80 μM) for 1 h. Then all-trans-retinal was added to a final concentration of 15 μM for 4 h, before rinsing with medium. Control cells were incubated with DMSO (0.2%)±all-trans-retinal. The cell viability was determined 16-20 h later using a MTT colorimetric assay. All samples are expressed as percentage of viability compared to non-treated and exposed to all-trans-retinal control cells. Non-treated and non-exposed to all-trans-retinal control cells are normalized at 100% survival.
The results on the measurement of anti-carbonyl stress activity will be discussed in % cell survival gain compared to cells stressed by trans-retinal (at 15 μM) and not treated with lipophenols. Any survival gain greater than +5% will be considered as a proven anti-carbonyl stress activity.

[4] = test system: ARPE-19 cells; experiment: Protection of lipophenols against ROS production (DCFDA probe, H2O2); details: 80 μM lipophenol, H2O2 600 μM
Experimental: as §2
Reactive oxygen species (ROS) were measured in ARPE-19 cells with the probe DCFDA. The cell permeant reagent DCFDA is deacetylated by cellular esterases to […], which can be oxidized by ROS into the fluorophore 2′,7′-dichlorofluorescein (DCF). ARPE-19 cells were plated into black, opaque bottom 96-well plates (4×10^4 cells/well) and cultured for 24 h to reach confluence before drug treatment. The cell cultures were incubated with 2 μM of DCFDA for 45 min in DMEM/F12 medium without phenol red+1% FBS. The cells were rinsed and incubated with medium containing lipophenols at different concentrations (0-80 μM) for 1 h. Then H2O2 was added to a final concentration of 600 μM for 4 h, followed by the measurement of DCF production by fluorescence spectroscopy with excitation wavelength at 485 nm and emission wavelength at 535 nm. Control cells were incubated with DMSO (0.2%)±DCFDA±H2O2. All samples are expressed as percentage of ROS production compared to non-oxidized control cells (normalized at 100% of ROS production).
The lowest percentages of increase will therefore be representative of the most protective derivatives.

| Structure (SMILES) | CC50 at 24 h [1] [µM] | cell survival gain against photoactivated A2E [2] | anti-carbonyl stress activity (in words) ([3]; up to 80 μM lipophenol) | cell survival gain (anti-carbonyl stress activity) ([3]; 80 μM lipophenol, compared to stressed untreated cells) | gain of % of ROS production compared to non-stressed cells [4] |
| --- | --- | --- | --- | --- | --- |
| O=c1c(O)c(-c2ccc(O)c(O)c2)oc2cc(O)cc(O)c12 [quercetin, reference compound] | ~120 | +36% | did not show anti-carbonyl stress potency; also recorded: no cellular protection | – | – |
| CCCCC/C=C\C/C=C\CCCCCCCC(=O)O[C@H]1Cc2c(O)cc(O)cc2O[C@@H]1c1ccc(O)c(O)c1 [C-3LA, (9Z,12Z)-(2R,3S)-2-(3,4-dihydroxyphenyl)-5,7-dihydroxy-chroman-3-yl octadeca-9,12-dienoate] | < 160 | – | – | +11% | +24% |
